{
  "source": "patent US7205011B2",
  "about": "“Anti-inflammatory activity of a specific turmeric extract” (Board of Regents, Acting for and on behalf of, University …, priority 2003, dated 2007)",
  "key": {"[1]": {"tested_on": "LPS-induced TNF-α production", "assay": "Inhibition of LPS-induced TNF-α production in PMA-differentiated HL-60 cells (ELISA)", "type": "cell-based", "conditions": "Homo sapiens, read-out: IC50 TNF-α (50% inhibition of LPS-induced mediator production)"}, "[2]": {"tested_on": "LPS-induced PGE2 production", "assay": "Inhibition of LPS-induced PGE2 production in PMA-differentiated HL-60 cells (ELISA)", "type": "cell-based", "conditions": "Homo sapiens"}, "TNF-α": {"tested_on": "TNF-α", "conditions": "Chan et al. 1995; Abe et al. 1999; cited from earlier work"}, "COX-2 mRNA": {"tested_on": "COX-2 mRNA", "assay": "COX-2 expression assay (Quantikine mRNA) in LPS-stimulated HL-60 cells", "conditions": "HL-60 cells + LPS"}, "COX-2 expression": {"tested_on": "COX-2 expression", "conditions": "Lee et al. 2002; IC50 values not reported; cited from earlier work"}, "[3]": {"conditions": "Table 1, curcuminoids from fraction 5, HL-60 cells, LPS 1 μg/ml, 24 hrs"}, "[4]": {"conditions": "Table 1, curcuminoids from fraction 5, HL-60 cells, LPS 1 μg/ml, 24 hrs, read-out: IC50 PGE2 (50% inhibition of LPS-induced mediator production)"}},
  "note": "Like-named read-outs stand apart in the source and are kept apart here.",
  "data": [
    {"compound": "O=C(/C=C/c1ccc(O)cc1)CC(=O)/C=C/c1ccc(O)cc1", "note": "(single isomer, unassigned) [Bisdemethoxycurcumin, bisdemethoxycurcumin]", "values": [
      {"measurement": "IC50", "setting": "[1]; [3]", "value": 24.6, "unit": "µg/mL"},
      {"measurement": "IC50", "setting": "[2]; [4]", "value": 1.2, "unit": "µg/mL"}
    ]},
    {"compound": "COc1cc(/C=C/C(=O)CC(=O)/C=C/c2ccc(O)c(OC)c2)ccc1O", "note": "(single isomer, unassigned) [Curcumin, curcumin]", "values": [
      {"measurement": "concentration producing 50% decrease in production of TNF-α", "setting": "TNF-α", "value": "2 to 10", "unit": "µg/mL"},
      {"measurement": "inhibition (decrease) of COX-2 expression", "setting": "COX-2 mRNA; 0.5 μg/mL, 24 hrs, relative to LPS alone = 100%", "value": "greater than 50%"},
      {"measurement": "inhibition of COX-2 expression", "setting": "COX-2 mRNA; 1.0 μg/ml, 24 hrs, relative to LPS alone = 100%", "value": "greater than 50%"},
      {"measurement": "effect on COX-2 expression / COX-2 mRNA levels", "setting": "COX-2 mRNA; concentration not given, result in words", "value": "inhibited COX-2 expression"},
      {"measurement": "IC50", "setting": "[1]; [3]", "value": 28.8, "unit": "µg/mL"},
      {"measurement": "IC50", "setting": "[2]; [4]", "value": 0.45, "unit": "µg/mL"}
    ]},
    {"compound": "COc1cc(/C=C/C(O)=C/C(=O)/C=C/c2ccc(O)cc2)ccc1O", "note": "(single isomer, unassigned) [Demethoxycurcumin, demethoxycurcumin]", "values": [
      {"measurement": "IC50", "setting": "[1]; HL-60, 24 h", "value": 24.7, "unit": "µg/mL"},
      {"measurement": "IC50", "setting": "[2]; HL-60, 24 h, read-out: IC50 PGE2 (50% inhibition of LPS-induced mediator production)", "value": 2.6, "unit": "µg/mL"}
    ]},
    {"compound": "COc1ccc2c(c1)c(CC(=O)O)c(C)n2C(=O)c1ccc(Cl)cc1", "note": "[indomethacin]", "values": [
      {"measurement": "IC50", "setting": "[2]; HL-60 cells, LPS 1 μg/ml, 24 hrs, read-out: IC50 for LPS-induced PGE2 production", "value": 0.052, "unit": "µg/mL"}
    ]},
    {"compound": "CC(C)=CCC[C@@H](C)c1ccc(C)c(O)c1", "note": "[xanthorrhizol]", "values": [
      {"measurement": "concentrations showing inhibition of COX-2 expression", "setting": "COX-2 expression", "value": "5 to 10", "unit": "µg/mL"}
    ]}
  ]
}
